Laboratory results: patent US8987212B2, “Oleanoyl peptide composition and method of treating skin aging” (priority 2007, dated 2015)
Where a SMILES comes first, the peptide text is derived from it. The star is where a group is joined. X1 = CC1(C)CC[C@]2(C(=O)*)CC[C@]3(C)C(=CCC4[C@@]5(C)CC[C@H](O)C(C)(C)C5CC[C@]43C)C2C1

Tests used:
[1] = DPPH free radical scavenging assay
Protocol: The DPPH assay is often used to evaluate the ability of antioxidants to scavenge free radicals which are known to be a major factor in biological damages caused by oxidative stress. This assay is known to give reliable information concerning the antioxidant ability of the tested compounds. The assay is based on the color change of the stable free radical DPPH from purple to yellow as the radical is quenched by the antioxidant.
The assay mixture tubes containing 1.5 ml of 0.1 mM DPPH methanolic solution and varying concentrations of the sample in a total volume of 3 ml were incubated at 37° C. for 30 minutes in a shaking water bath. The reduction in absorbance which is directly proportional to the radical scavenging is measured spectrophotometrically at 517 nm. […] The percentage of scavenging is calculated as follows, % scavenging=[(C−T)/C]×100 Where C=absorbance in the absence of inhibitor
T=absorbance in the presence of inhibitor

TNF α = TNF α inhibition in LPS-stimulated human whole blood (ELISA); format: cell-based; conditions: human whole blood, LPS 1 ng/mL
Excerpt: For TNF α inhibitory study, human whole blood is used. In whole blood assay, monocytes appear to be the main source of TNF-α on lipopolysaccharide (LPS) stimulation. Monocyte and macrophages are a major source of TNF-α in addition to other cell types like eosinophils, mast cells, peripheral lymphocytes and granulocytes. The activation of inflammatory cells is influenced by the intracellular levels of c-AMP which are regulated by the phosphodiesterase isoenzyme. […] After stimulation, the assay employs the quantitative sandwich enzyme immunoassay technique. A monoclonal antibody specific for TNF-α has been pre-coated onto a microplate. TNF-α present in the sample is bound by the immobilized antibody. After washing away any unbound substances, an enzyme-linked polyclonal antibody specific for TNF-α is added. Following a wash to remove any unbound antibody-enzyme reagent, a substrate solution is added to the wells and colour develops in proportion to the amount of TNF-α bound in the initial step. The colour development is stopped and the intensity of the colour is directly proportional to the TNF-α content.
Heparinized blood from healthy donors was diluted 1:3 in RPMI 1640 culture medium containing 10% FBS. […] 0.1% DMSO was used as vehicle for water insoluble samples. After pre-incubation, the whole blood cells were stimulated by 1 ng/mL LPS for the release of TNF α from the macrophages by incubating for 5 hr at 37° C. in an incubator with 5% COP. The samples were then centrifuged at 3000 g for 3 minutes at 4° C. and the supernatant was assayed for TNF α content by using the TNF α Elisa kit. 200 μL of supernatant from all the tubes was transferred into microtiter plate in respective wells (Pre-coated mouse monoclonal antibody microplate) followed by the addition of 50 μL of assay diluents in all the wells. After incubation for 2 hr at room temperature, the wells were washed thoroughly with wash buffer provided and then 200 μL of conjugate was added to each well. The plate was incubated for 2 hr at room temperature. After washing again, 200 μL of substrate solution was added to each well and incubated for 20 minutes at room temperature. 50 μL of Stop Solution to each well which will cause the colour change in the wells from blue to yellow was added. The optical density was read at 450 nm which is directly proportional to TNF α content and the percentage of inhibition of TNF α content on treatment with sample was calculated with respect to that of the untreated cells.
T=absorbance due to TNF α in the presence of inhibitor

[2] = test system: Interleukin-1beta (IL-1β); assay: Extracellular IL-1β from LPS-challenged human neutrophils; format: cell-based; conditions: for % activity IL-1β expression against LPS control: ↓ = inhibition
Protocol: (§1) Experimental observations were made in human neutrophil that were challenged with LPS. […] Rolipram at 100 μg/ml dose level was used as a standard drug to observe the authenticity and reproducibility of the experimental design.

Interleukin-6 (IL-6) = assay: Extracellular IL-6 from LPS-challenged human neutrophils; format: cell-based; conditions: for % activity IL-6 expression against LPS control: ↓ = inhibition
Protocol: as §1

Structure (SMILES): C[C@@H](O)[C@H](NC(=O)[C@H](CCCCN)NC(=O)[C@]12CCC(C)(C)CC1C1=CCC3[C@@]4(C)CC[C@H](O)C(C)(C)C4CC[C@@]3(C)[C@]1(C)CC2)C(=O)N[C@H](C(=O)N[C@@H](CCCCN)C(=O)N[C@@H](CO)C(=O)O)[C@@H](C)O (stereo partly drawn) [Oleanoyl peptide, Oleanoyl-Lys-Thr-Thr-Lys-Ser-OH] (X1-KTTKS-OH)
- Anti-oxidant activity by DPPH Method, % inhibition ([1]; at 300 μg/ml): 29% inhibition at 300
- Anti-oxidant activity by DPPH Method ([1]; result in words): shows DPPH scavenging activity
- TNF α inhibition (IC50 μg/ml) (TNF α): 21 µg/mL
- Concentration of IL-1β produced (pg/ml) Mean ± S.E. ([2]; test sample 0.125 μg/ml): 130.79 ± 3.07 pg/mL
- Concentration of IL-1β produced (pg/ml) Mean ± S.E. ([2]; test sample 0.25 μg/ml): 119.44 ± 2.23 pg/mL
- Concentration of IL-1β produced (pg/ml) Mean ± S.E. ([2]; test sample 0.5 μg/ml): 109.72 ± 3.21 pg/mL
- Concentration of IL-1β produced (pg/ml) Mean ± S.E. ([2]; test sample 1 μg/ml): 96.61 ± 3.63 pg/mL
- Concentration of IL-1β produced (pg/ml) Mean ± S.E. ([2]; test sample 2 μg/ml): 102.08 ± 2.61 pg/mL
- Concentration of IL-1β produced (pg/ml) Mean ± S.E. ([2]; test sample 4 μg/ml): 100.45 ± 3.78 pg/mL
- % activity IL-1β expression against LPS control ([2]; test sample 0.125 μg/ml): 6.29↓ %
- % activity IL-1β expression against LPS control ([2]; test sample 0.25 μg/ml): 14.42↓ %
- % activity IL-1β expression against LPS control ([2]; test sample 0.5 μg/ml): 21.39↓ %
- % activity IL-1β expression against LPS control ([2]; test sample 1 μg/ml): 31.78%
- % activity IL-1β expression against LPS control ([2]; test sample 1 μg/ml, listed as OP): 30.78↓ %
- % activity IL-1β expression against LPS control ([2]; test sample 2 μg/ml): 26.86↓ %
- % activity IL-1β expression against LPS control ([2]; test sample 4 μg/ml): 28.03↓ %
- Concentration of IL-6 produced (pg/ml) Mean ± S.E. (Interleukin-6 (IL-6); test sample 0.125 μg/ml): 130.38 ± 2.11 pg/mL
- Concentration of IL-6 produced (pg/ml) Mean ± S.E. (Interleukin-6 (IL-6); test sample 0.25 μg/ml): 123.92 ± 2.09 pg/mL
- Concentration of IL-6 produced (pg/ml) Mean ± S.E. (Interleukin-6 (IL-6); test sample 0.5 μg/ml): 117.23 ± 2.84 pg/mL
- Concentration of IL-6 produced (pg/ml) Mean ± S.E. (Interleukin-6 (IL-6); test sample 1 μg/ml): 106.81 ± 3.79 pg/mL
- Concentration of IL-6 produced (pg/ml) Mean ± S.E. (Interleukin-6 (IL-6); test sample 2 μg/ml): 104.75 ± 5.31 pg/mL
- Concentration of IL-6 produced (pg/ml) Mean ± S.E. (Interleukin-6 (IL-6); test sample 4 μg/ml): 101.11 ± 2.87 pg/mL
- % activity IL-6 expression against LPS control (Interleukin-6 (IL-6); test sample 0.125 μg/ml): 8.33↓ %
- % activity IL-6 expression against LPS control (Interleukin-6 (IL-6); test sample 0.25 μg/ml): 12.87↓ %
- % activity IL-6 expression against LPS control (Interleukin-6 (IL-6); test sample 0.5 μg/ml): 17.58↓ %
- % activity IL-6 expression against LPS control (Interleukin-6 (IL-6); test sample 1 μg/ml): 24.90↓ %
- % activity IL-6 expression against LPS control (Interleukin-6 (IL-6); test sample 2 μg/ml): 26.35↓ %
- % activity IL-6 expression against LPS control (Interleukin-6 (IL-6); test sample 4 μg/ml): 28.03%
- % activity IL-6 expression against LPS control (Interleukin-6 (IL-6); test sample 4 μg/ml, listed as OP): 28.91↓ %
